The Kinase Knowledgebase extract (Sharma et al. 2016)

target: PIK3CG (human) (UniProt P48736); assay: Assessment of PIK3CG Kinase Activity
Sequence (P48736 whole entry, looked up): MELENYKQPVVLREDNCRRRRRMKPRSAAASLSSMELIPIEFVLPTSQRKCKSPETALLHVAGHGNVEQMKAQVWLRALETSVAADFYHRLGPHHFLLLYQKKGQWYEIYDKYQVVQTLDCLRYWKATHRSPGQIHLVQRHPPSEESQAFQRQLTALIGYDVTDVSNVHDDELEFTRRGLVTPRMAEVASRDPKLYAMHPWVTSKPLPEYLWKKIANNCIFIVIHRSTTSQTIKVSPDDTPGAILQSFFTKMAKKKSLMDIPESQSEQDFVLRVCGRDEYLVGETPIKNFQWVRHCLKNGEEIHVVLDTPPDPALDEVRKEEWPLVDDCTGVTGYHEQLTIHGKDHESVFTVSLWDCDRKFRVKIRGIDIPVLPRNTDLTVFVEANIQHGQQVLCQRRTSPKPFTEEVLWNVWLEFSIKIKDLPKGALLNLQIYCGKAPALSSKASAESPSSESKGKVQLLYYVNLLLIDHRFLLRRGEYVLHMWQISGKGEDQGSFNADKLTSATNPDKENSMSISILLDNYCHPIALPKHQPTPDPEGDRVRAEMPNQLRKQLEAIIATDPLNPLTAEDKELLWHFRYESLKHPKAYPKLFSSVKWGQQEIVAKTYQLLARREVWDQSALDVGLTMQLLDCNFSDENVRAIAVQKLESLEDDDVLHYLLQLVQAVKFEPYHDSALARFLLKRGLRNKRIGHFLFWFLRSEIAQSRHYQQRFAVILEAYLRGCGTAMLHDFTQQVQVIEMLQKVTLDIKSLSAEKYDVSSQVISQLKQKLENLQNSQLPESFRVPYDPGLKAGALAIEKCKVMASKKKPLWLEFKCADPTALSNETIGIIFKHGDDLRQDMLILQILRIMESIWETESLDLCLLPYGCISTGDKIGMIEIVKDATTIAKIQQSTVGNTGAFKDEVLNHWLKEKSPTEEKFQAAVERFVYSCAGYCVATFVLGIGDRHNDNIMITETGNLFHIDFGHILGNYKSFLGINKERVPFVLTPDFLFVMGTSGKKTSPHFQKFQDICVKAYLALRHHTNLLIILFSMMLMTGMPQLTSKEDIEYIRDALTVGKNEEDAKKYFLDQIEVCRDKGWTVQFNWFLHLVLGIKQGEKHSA

Row | Compound | IC50 [nM]
1 | CC(=O)Nc1nc2c(s1)-c1nc(-c3cc(C#CCNS(N)(=O)=O)ccc3Cl)ncc1CC2 | < 600
2 | CC(=O)Nc1nc2c(s1)-c1nc(-c3cc(C#CC4CCN(S(=O)(=O)C5CC5)CC4)ccc3Cl)ncc1CC2 | < 600
3 | CC(=O)Nc1nc2c(s1)-c1nc(-c3cc(C#CCNC(=O)CC4CCCCC4)ccc3Cl)ncc1CC2 | < 600
4 | CC(=O)Nc1nc2c(s1)-c1nc(-c3cc(C#CCNC(=O)NCC4CCCCC4)ccc3Cl)ncc1CC2 | < 600
5 | CC(=O)Nc1nc2c(s1)-c1nc(-c3cc(C#CC4CCCCC4)ccc3Cl)ncc1CC2 | < 600
6 | CC(=O)Nc1nc2c(s1)-c1nc(-c3cc(C#CCNC(=O)CCC(C)C)ccc3Cl)ncc1CC2 | < 600
7 | CC(=O)Nc1nc2c(s1)-c1nc(-c3cccc(C#CCNC(=O)CC(C)(C)C)c3)ncc1CC2 | < 600
8 | CC(=O)Nc1nc2c(s1)-c1nc(-c3cc(C#CCNCc4ccccn4)ccc3Cl)ncc1CC2 | < 600
9 | CC(=O)Nc1nc2c(s1)-c1nc(-c3cc(C#CCNC(=O)C4CCCCC4)ccc3Cl)ncc1CC2 | < 600
10 | CC(=O)Nc1nc2c(s1)-c1nc(-c3cc(C#CCN(C)C(=O)C(C)C)ccc3Cl)ncc1CC2 | < 600
11 | CC(=O)Nc1nc2c(s1)-c1nc(-c3cc(C#CCN(C)C(C)C)ccc3Cl)ncc1CC2 | < 600
12 | CC(=O)Nc1nc2c(s1)-c1nc(-c3cc(C#CCN4CCCC4)ccc3Cl)ncc1CC2 | < 600
13 | CC(=O)Nc1nc2c(s1)-c1nc(-c3cc(C#CC4CCN(S(C)(=O)=O)CC4)ccc3Cl)ncc1CC2 | < 600
14 | CC(=O)Nc1nc2c(s1)-c1nc(-c3cc(C#CCNC(=O)CCC4CCCC4)ccc3Cl)ncc1CC2 | < 600
15 | CC(=O)Nc1nc2c(s1)-c1nc(-c3cc(C#CCCNCC4CCCC4)ccc3Cl)ncc1CC2 | < 600
16 | CC(=O)Nc1nc2c(s1)-c1nc(-c3cc(C#CC4(O)CCC(C)(C)CC4)ccc3Cl)ncc1CC2 | < 600
17 | CNC(=O)NC1(C#Cc2ccc(Cl)c(-c3ncc4c(n3)-c3sc(NC(C)=O)nc3CC4)c2)CCCCC1 | < 600
18 | CC(=O)Nc1nc2c(s1)-c1nc(-c3cc(Cl)cc(C#CCN(C)C)c3)ncc1CC2 | < 600
19 | CC(=O)Nc1nc2c(s1)-c1nc(-c3cc(C#CCCCN(C)C)ccc3Cl)ncc1CC2 | < 600
20 | CC(=O)Nc1nc2c(s1)-c1nc(-c3cc(C#CC4CCN(C(=O)NC(C)(C)C)CC4)ccc3Cl)ncc1CC2 | < 600
21 | CC(=O)Nc1nc2c(s1)-c1nc(-c3cc(C#CCN(C)C)ccc3Cl)ncc1CC2 | < 600
22 | CC(=O)Nc1nc2c(s1)-c1nc(-c3cc(C#CCN(C)CC(C)C)ccc3Cl)ncc1CC2 | < 600
23 | CC(=O)Nc1nc2c(s1)-c1nc(-c3cc(C#Cc4cccnc4)ccc3Cl)ncc1CC2 | < 600

The next lines start with the values.

Row | IC50 [nM] | Compound
24 | < 600 | CC(=O)Nc1nc2c(s1)-c1nc(-c3cc(C#CCCO)ccc3Cl)ncc1CC2
25 | < 600 | CC(=O)Nc1nc2c(s1)-c1nc(-c3cccc(C#CC4(O)CCN(C(C)C)CC4)c3)ncc1CC2
26 | < 600 | CNC(=O)NCC#Cc1ccc(Cl)c(-c2ncc3c(n2)-c2sc(NC(C)=O)nc2CC3)c1
27 | < 600 | CC(=O)Nc1nc2c(s1)-c1nc(-c3cc(C#CC4(O)CCN(C5CCCC5)CC4)ccc3Cl)ncc1CC2
28 | < 600 | CC(=O)Nc1nc2c(s1)-c1nc(-c3cc(C#CCCN4CCCCC4)ccc3Cl)ncc1CC2
29 | < 600 | CC(=O)Nc1nc2c(s1)-c1nc(-c3cc(C#CC4(O)CCN(C(C)C)CC4)ccc3Cl)ncc1CC2
30 | < 600 | CC(=O)Nc1nc2c(s1)-c1nc(-c3cc(C#CCNC(=O)C4CCCC4)ccc3Cl)ncc1CC2
31 | < 600 | CC(=O)Nc1nc2c(s1)-c1nc(-c3cc(C#CCN4CCS(=O)(=O)CC4)ccc3Cl)ncc1CC2
32 | < 600 | CC(=O)Nc1nc2c(s1)-c1nc(-c3cc(C#CCN(C)S(=O)(=O)N(C)C)ccc3Cl)ncc1CC2
33 | < 600 | COC1(C#Cc2ccc(F)c(-c3ncc4c(n3)-c3sc(NC(C)=O)nc3CC4)c2)CCN(C2CCCC2)CC1
34 | < 600 | CC(=O)NCC#Cc1ccc(Cl)c(-c2ncc3c(n2)-c2sc(NC(C)=O)nc2CC3)c1
35 | < 600 | CC(=O)Nc1nc2c(s1)-c1nc(-c3cc(C#CCNC4CCN(C)CC4)ccc3Cl)ncc1CC2
